Test results as given in patent US6881824B1, “Peptides suitable for use in antigen specific immunosuppressive therapy” (Akzo Nobel N.V., priority 1996, dated 2005).
Ends that are not written are not given here.

B1: HC gp-39 peptide 56 (residues printed as 352-377) (peptide)
peptide: WALDLDDFQGSFCGQD
notes: A 16-mer starting at 352 would end at 367, so this is probably a misprint

Key:
[1] = system: PBMC from healthy donors carrying the DR4 (DRB1*0401) specificity; assay: Peptide-induced proliferative responses of PBMC from healthy donors; assay type: cell-based, human; conditions: for Responses induced only in healthy donors: healthy donors 230, 235
Description: Peripheral blood samples from 5 healthy donors carrying the DR4(DRB1*0401) specificity were obtained with informed consent and included in this study as a control.
(§1) In order to identify T-cell epitopes within HC gp-39, 59 peptides of 16 AA in length, overlapping by 10 AA were tested for their capacity to induce a proliferative response in PBMC from RA patients and healthy controls carrying the DR4 (DRB1*0401) specificity (Table 1).
(§2) PBMC obtained from heparinized venous peripheral blood were isolated by standard centrifugation on a Ficoll-Paque gradient. Cells were cultured in four-fold at a concentration of 1,5×10^5 cells/well in medium supplemented with 10% heat-inactivated, autologous plasma, L-glutamine, 2-ME and antibiotics in flatbottomed microtiter plates. Cells were incubated in medium alone or in the presence of phytohaemagglutinin (PHA) (2:5 μg/ml) to assert cell viability, or in the presence of 10 or 100 μg/ml of the HC gp-39-derived peptides. In several cases, sets of 2 or 3 sequential peptides were tested due to limited PBMC numbers of individual donors. Cultures were incubated in a total volume of 210 μl for 7 days at […] in a humidified atmosphere of 5% CO2. Cultures were pulsed during the last 18 hours with 0.25 μCi ^3H-thymidine ([^3H]TdR). Cells were harvested on glassfiber filters and [^3H] TdR incorporation was measured by gas scintillation (Packard Matrix 96 βcounter). Only peptides inducing a proliferative response at both 10 and 100 μg/ml were considered to contain a T-cell epitope. Responses were defined positive if stimulation index values (SI, antigen-specific counts per 5 min (cp5 m)/background cp5 m) exceeded or equaled 2.
(§3) T-cell reactivity to HC gp-39-derived peptide as analyzed by measuring the PBMC proliferative response in DR4 (DRB1*0401)-positive RA patients and healthy donors. Proliferative responses were tested in autologous plasma. In Table IIIA and IIIB the results of 7 experiments are presented showing the responses of RA patients (Table IIIA) and the responses of healthy donors (Table IIIB) to 59 overlapping sequences derived from HC gp-39.

[2] = target: T1, DR4 (DRB1*0401) molecules (Homo sapiens, UniProt P01903+P01911, A100K/A169T/F76Y/I96L/K127E/L162R/M171V/N62H/P40V/Q125Y/R42H/S133A/S149N/S66Y/V115G/V209L/W38E); assay: Peptide HLA-DR binding assay (semi-quantitative competition binding); conditions: for IC50: competition with biotinylated marker peptide HA 309 Y→F, pH5.0, 44 hr RT
T1 construct: molecules were purified from the homozygous EBV-transformed human B lymphoblastoid cell lines Huly138IC2 and BM92 using the mAb; endogenous in cells
Description: DR4 (DRB1*0401) and DR4 (DRB1*0404) molecules were purified from the homozygous EBV-transformed human B lymphoblastoid cell lines Huly138IC2 and BM92 using the mAb t243, directed against a monomorphic determinant on the DR-complex (Lampson, L. A and R. Levy (1980), J. Immunol. 125:293 299).
The peptide binding studies were performed using a semi-quantitative competition binding assay (Joosten et al 1994, Int. Immunol. 6, 751). Briefly, purified HLA-DR molecules (30 nM DR4(DRB1*0401) or 15 nM DR4 (DRB1*0404) were incubated at pH5.0 with 50 nM biotinylated marker peptide (HA 309y→F) and a concentration range of competitor peptide in a final volume of 25 μl binding buffer (PBS containing 0.01% […], 0.05% NP-40, 5% DMSO, 1 mM AEBSF, 1 mM N-ethyl maleimide, 8 mM EDTA and 10 μm pepstatin A). After 44 hr of incubation at RT, HLA DR bound marker peptide was separated from free marker peptide using a 96 well vacuum dotblot apparatus (Hybri. dot, BRL) and a nitrocellulose membrane (Hybond ECL, Amersham, UK). The nitrocellulose filters were blocked with 0.5% DNA blocking reagent (Boehringer) in 0.1 M maleic acid, 150 mM NaCl, pH7.5.
After 0.5-1 hr, the filters were washed in PBS, 0.05% Tween 20 (Sigma) and incubated with Strepcavidin-HRPO (Southern Biotechnology) in a 1:10.000 dilution. Biotinylated peptides were detected by enhanced chemiluminescence using a Western Blot ECL kit (Amersham). Exposure of the preflashed films (Hyperfilm-ECL, Amersham) was for 10 min. The spots were analysed by scanning the films and using Image Quant/Excel software for analysis.
The affinity of a given peptide for binding DRB1*0401-encoded molecules was related to competition with the marker peptide. This relative binding affinity was defined as the peptide concentration at which the signal was reduced to 50% (IC50).

[3] = system: PBMC from RA patients and healthy controls carrying the DR4 (DRB1*0401) specificity; assay: Proliferative responses of blood mononuclear cells, RA patients and healthy donors taken together; assay type: cell-based, human; conditions: individual peptides; any donor
Description: as §1, §2, §3

[4] = system: PBMC from RA patients carrying the DR4 (DRB1*0401) specificity; assay: Peptide-induced proliferative responses of PBMC from RA patients; assay type: cell-based, human; conditions: for Peptide-induced proliferative response of PBMC, RA 259: RA patient 259, 0401, R; for Peptide-induced proliferative response of PBMC, RA 272: RA patient 272, 0401, R; for Peptide-induced proliferative response of PBMC, RA 276: RA patient 276, 0401, R; for Peptide-induced proliferative response of PBMC, RA 286: RA patient 286, 0401, R; for Responses to peptides observed in RA patients only: compared with healthy donors
Description: This study included 7 DR4(DRB1*0401)-positive patients diagnosed as suffering from RA according to the ARA criteria (Arnett et al., (1988), Arthritis Rheum. 31, 315). Peripheral blood samples were obtained with informed consent. There were five women and two men aged 46-79 years. Their duration of disease ranged from over 10 to over 30 years. Three out of 7 patients had at least 3 swollen joints. […] All patients were on medication: Four patients were treated with prednisone, three patients received anti-rheumatic agents and 4 patients were treated with NSAID's as well.
as §1, §2, §3

[5] = target: T2, DR4 (DRB1*0401) molecules purified from the homozygous EBV-transformed human B lymphoblastoid cell line … (human, UniProt P01903 26-254); assay: competition binding assay on purified DR4(DRB1*0401)
T2 construct: mature; That form is inferred from purification of the native complex

[6] = 100 and 10 microgram/ml, 7 days, 3H-thymidine incorporation

IC50 ([2]; Table IIIB) [nM] | binding result [5] | Molecule | Peptide-induced proliferative response of PBMC, HD 230 ([1]; healthy donor 230, 0401, R, 100 and 10 microgram/ml, 7 days, 3H-thymidine incorporation) | Responses induced only in healthy donors [1] | Relative affinity of binding to DR4 (DRB1*0401), in words [2] | Responses to the individual peptides (PBMC proliferation), identifying T-cell epitopes [3] | IC50 ([2]; Table IIIA) [nM] | Peptide-induced proliferative response of PBMC, RA 259 [4, 6] | Peptide-induced proliferative response of PBMC, RA 262 ([4]; RA patient 262, 0401, R, 100 and 10 microgram/ml, 7 days, 3H-thymidine incorporation) | Peptide-induced proliferative response of PBMC, RA 272 [4, 6] | Response of PBMC from RA patient 272 to individual peptides, in words [4] | Peptide-induced proliferative response of PBMC, RA 276 [4, 6] | Peptide-induced proliferative response of PBMC, RA 286 [4, 6] | Responses to peptides observed in RA patients only [4] | Peptide-induced proliferative response of PBMC, RA 191 ([4]; RA patient 191, 0401, R, 100 and 10 microgram/ml, 7 days, 3H-thymidine incorporation) | Peptide-induced proliferative response of PBMC, HD 235 ([1]; healthy donor 235, 0401, R, 100 and 10 microgram/ml, 7 days, 3H-thymidine incorporation)
< 1000 | – | PNLKTLLSVGGWNFGS [compound 12, PNLKTLLSVGGWNFGS] | pos (positive responses to both 100 and 10 microgram/ml of peptide or sets of peptides (SI>2 were regarded positive)) | induced only responses in healthy donors | relatively high affinity | observed in one or more donors | – | – | – | – | – | – | – | – | – | –
– | – | MLRLGAPASKLVMGIP [compound 38, MLRLGAPASKLVMGIP] | – | – | intermediate relative affinity | observed in one or more donors | 10000 to 100000 | pos (positive responses to both 100 and 10 microgram/ml of peptide or sets of peptides (SI≧2 were regarded positive)) | pos (positive responses to both 100 and 10 microgram/ml of peptide or sets of peptides (SI≧2 were regarded positive)) | pos (positive responses to both 100 and 10 microgram/ml of peptide or sets of peptides (SI≧2 were regarded positive)) | appeared to respond | pos (positive responses to both 100 and 10 microgram/ml of peptide or sets of peptides (SI≧2 were regarded positive)) | pos (positive responses to both 100 and 10 microgram/ml of peptide or sets of peptides (SI≧2 were regarded positive)) | observed in RA patients only | – | –
– | – | LAGAMVWALDLDDFQG [compound 55, LAGAMVWALDLDDFQG] | – | – | relatively high affinity | observed in one or more donors | < 1000 | – | – | pos (positive responses to both 100 and 10 microgram/ml of peptide or sets of peptides (SI≧2 were regarded positive)) | appeared to respond | – | – | observed in RA patients only | – | –
– | – | MGIPTFGRSFTLASSE [compound 40, MGIPTFGRSFTLASSE] | – | – | relatively high affinity | observed in one or more donors | < 1000 | – | – | pos (positive responses to both 100 and 10 microgram/ml of peptide or sets of peptides (SI≧2 were regarded positive)) | appeared to respond | – | pos (positive responses to both 100 and 10 microgram/ml of peptide or sets of peptides (SI≧2 were regarded positive)) | observed in RA patients only | – | –
– | – | SPLFRGQEDASPDRFS [compound 34, SPLFRGQEDASPDRFS] | – | – | relatively high affinity | observed in one or more donors | < 1000 | – | – | pos (positive responses to both 100 and 10 microgram/ml of peptide or sets of peptides (SI≧2 were regarded positive)) | appeared to respond | – | – | observed in RA patients only | – | –
– | – | YTSWSQYREGDGSCFP [peptide 2, YTSWSQYREGDGSCFP] | – | – | intermediate relative affinity | observed in one or more donors | 10000 to 100000 | pos (positive responses to both 100 and 10 microgram/ml of peptide or sets of peptides (SI≧2 were regarded positive)) | – | pos (positive responses to both 100 and 10 microgram/ml of peptide or sets of peptides (SI≧2 were regarded positive)) | appeared to respond | pos (positive responses to both 100 and 10 microgram/ml of peptide or sets of peptides (SI≧2 were regarded positive)) | pos (positive responses to both 100 and 10 microgram/ml of peptide or sets of peptides (SI≧2 were regarded positive)) | observed in RA patients only | pos (positive responses to both 100 and 10 microgram/ml of peptide or sets of peptides (SI≧2 were regarded positive)) | –
< 1000 | – | GRSFTLASSETGVGAP [compound 41, GRSFTLASSETGVGAP] | – | induced only responses in healthy donors | relatively high affinity | observed in one or more donors | – | – | – | – | – | – | – | – | – | pos (positive responses to both 100 and 10 microgram/ml of peptide or sets of peptides (SI>2 were regarded positive))
– | binds | B1 | – | – | – | – | – | – | – | – | – | – | – | – | – | –
